Here are results for 33 compounds from patent publication US8030487B2, “2-amino—5-substituted pyrimidine inhibitors” (TargeGen, Inc., priority 2006, dated 2011).

Each structure is given as a SMILES string.

In general, IC50 refers to the concentration needed to halve the response being measured. High values mean lower potency, low ones higher potency. One may read the EC50 as the concentration giving half of the maximal effect. High values mean lower potency in that assay, low ones higher potency in that assay.

The target of assay [1] is T1, EGFR (Homo sapiens, UniProt P00533).
T1 construct: purchased Panvera/Invitrogen
T1 sequence (P00533 25-1210, species assumed): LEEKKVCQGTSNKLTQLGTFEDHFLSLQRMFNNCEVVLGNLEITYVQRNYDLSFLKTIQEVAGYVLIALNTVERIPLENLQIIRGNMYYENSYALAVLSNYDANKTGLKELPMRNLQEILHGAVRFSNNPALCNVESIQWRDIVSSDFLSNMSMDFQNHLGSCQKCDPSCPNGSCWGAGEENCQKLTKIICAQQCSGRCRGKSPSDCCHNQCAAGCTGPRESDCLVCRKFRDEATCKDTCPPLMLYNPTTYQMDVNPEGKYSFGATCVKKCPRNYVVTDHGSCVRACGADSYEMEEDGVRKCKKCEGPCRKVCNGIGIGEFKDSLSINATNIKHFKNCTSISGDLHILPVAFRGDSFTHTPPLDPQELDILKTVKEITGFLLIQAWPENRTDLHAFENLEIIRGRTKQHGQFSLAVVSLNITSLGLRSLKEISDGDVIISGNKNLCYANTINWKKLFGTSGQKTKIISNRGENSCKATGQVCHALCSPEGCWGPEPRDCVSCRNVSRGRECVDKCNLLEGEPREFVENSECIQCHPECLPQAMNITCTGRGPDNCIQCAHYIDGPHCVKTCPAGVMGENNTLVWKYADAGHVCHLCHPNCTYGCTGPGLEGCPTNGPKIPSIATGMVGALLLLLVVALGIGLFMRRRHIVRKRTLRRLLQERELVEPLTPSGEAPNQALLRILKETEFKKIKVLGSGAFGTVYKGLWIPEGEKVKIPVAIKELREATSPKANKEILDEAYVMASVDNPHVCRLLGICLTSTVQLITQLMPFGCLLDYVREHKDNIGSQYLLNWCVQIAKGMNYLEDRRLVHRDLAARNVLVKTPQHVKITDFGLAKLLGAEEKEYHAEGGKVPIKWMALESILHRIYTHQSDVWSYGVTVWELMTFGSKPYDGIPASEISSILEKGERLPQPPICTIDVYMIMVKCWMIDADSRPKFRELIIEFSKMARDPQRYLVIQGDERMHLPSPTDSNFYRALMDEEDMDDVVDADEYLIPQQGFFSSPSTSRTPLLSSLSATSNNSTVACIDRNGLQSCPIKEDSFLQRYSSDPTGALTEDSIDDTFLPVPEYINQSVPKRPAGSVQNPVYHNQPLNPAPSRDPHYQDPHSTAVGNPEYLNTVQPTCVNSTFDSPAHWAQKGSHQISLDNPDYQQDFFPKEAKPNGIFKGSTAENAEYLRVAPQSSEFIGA
The experiment in a line: EGFR kinase inhibition (residual ATP). Format: biochemical. To be noted: 2.5 uM ATP, 60 min 37° C. How it is done: (§1) The ability of compounds of the present invention to inhibit the activity of various groups of kinases was tested. Kinases that were tested are described below. All kinase reactions were conducted in 96-well plates with a final reaction volume of 50 μl.
(§2) EGFR and VEGFR2 kinase assays were similarly performed. EGFR (76 ng/well, Panvera/Invitrogen) was combined with 12.5 mg/ml poly(glu4tyr) (Sigma) and 2.5 uM ATP. VEGFR2 (14.1 U/well, Cell Signaling/ProQinase) was used with 0.3 mg/ml poly(glu4tyr) and 1.5 uM ATP. Both were incubated for 60 minutes at 37° C., and the residual ATP was measured via luminescence, per the procedure described above.

In assay [2] the target is Abl (Homo sapiens, UniProt P00519). The experiment in a line: Abl kinase inhibition. Format: biochemical. How it is done:
as §1
Src Family of Kinases, abl, and Ret
(§3) Recombinant human c-Src or Yes, or Fyn, or Lck (28 ng/well, Panvera/Invitrogen, Madison Wis.), ATP (3 μM), a tyrosine kinase substrate (PTK2, 250 μM, Promega Corp., Madison Wis.), and test agents (at concentrations ranging from about 1 nM/l to about 100 μM/l), in the presence of Src kinase reaction buffer (Upstate USA, Lake Placid N.Y.). After reacting for about 90 minutes at room temperature, residual ATP was determined using a luciferase-based assay (KinaseGlo, Promega Corp.) as a measure of kinase activity. Data from four wells were then averaged and used to determine IC50 values for the test compounds (Prism software package, GraphPad Software, San Diego Calif.).

In assay [3] the target is T2, Yes (Homo sapiens, UniProt P07947).
T2 construct: purchased Panvera/Invitrogen
Kind of assay: Yes kinase inhibition (KinaseGlo). Format: biochemical. How it is done: as §1, §3
(In general: Kinase-Glo reads ATP consumption through a luciferase reaction.)

The target in assay [4] is T3, Lck (Homo sapiens, UniProt P06239).
T3 construct: purchased Panvera/Invitrogen
T3 sequence (P06239 whole entry): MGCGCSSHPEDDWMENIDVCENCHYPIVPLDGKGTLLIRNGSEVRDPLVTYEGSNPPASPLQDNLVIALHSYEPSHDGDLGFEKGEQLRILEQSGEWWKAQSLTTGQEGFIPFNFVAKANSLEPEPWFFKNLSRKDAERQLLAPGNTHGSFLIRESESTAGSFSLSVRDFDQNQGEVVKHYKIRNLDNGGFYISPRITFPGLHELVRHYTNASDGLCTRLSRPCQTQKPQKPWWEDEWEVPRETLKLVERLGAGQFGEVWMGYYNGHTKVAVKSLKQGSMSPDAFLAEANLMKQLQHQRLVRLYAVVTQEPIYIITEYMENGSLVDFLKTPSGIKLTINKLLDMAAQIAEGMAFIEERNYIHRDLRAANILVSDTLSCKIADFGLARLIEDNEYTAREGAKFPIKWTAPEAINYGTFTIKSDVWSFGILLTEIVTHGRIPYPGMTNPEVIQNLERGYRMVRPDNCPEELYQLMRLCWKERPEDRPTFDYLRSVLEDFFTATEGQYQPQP
Kind of assay: Lck kinase inhibition (KinaseGlo). The class given is biochemical. How it is done: as §1, §3

Assay [5] deals with human retinal micro vascular endothelial cells (hRMVEC). The experiment in a line: Cellular data using hRMVEC. The class given is cell-based. To be noted: Endothelial cell.
In assay [6] the target is T4, human c-Src (Homo sapiens, UniProt P12931).
T4 construct: purchased Panvera/Invitrogen
T4 sequence (P12931 whole entry): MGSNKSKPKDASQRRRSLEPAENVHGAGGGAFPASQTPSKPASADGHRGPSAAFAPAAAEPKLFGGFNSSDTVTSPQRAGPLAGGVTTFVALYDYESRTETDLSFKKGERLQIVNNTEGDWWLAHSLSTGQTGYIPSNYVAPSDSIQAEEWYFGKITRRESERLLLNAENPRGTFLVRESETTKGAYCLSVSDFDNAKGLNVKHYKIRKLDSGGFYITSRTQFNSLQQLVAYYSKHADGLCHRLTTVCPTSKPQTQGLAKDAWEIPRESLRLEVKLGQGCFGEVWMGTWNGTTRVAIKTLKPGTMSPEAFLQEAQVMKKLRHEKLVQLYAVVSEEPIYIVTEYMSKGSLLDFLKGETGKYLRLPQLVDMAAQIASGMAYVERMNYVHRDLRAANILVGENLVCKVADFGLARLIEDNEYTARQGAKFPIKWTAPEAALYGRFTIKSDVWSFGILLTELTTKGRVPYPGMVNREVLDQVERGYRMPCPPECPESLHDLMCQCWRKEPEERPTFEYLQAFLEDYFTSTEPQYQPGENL
The experiment in a line: Src kinase inhibition (KinaseGlo residual ATP). The class given is biochemical. The settings on record: ATP 3 μM, 90 min room temperature. How it is done:
as §1, §3

Assay [7] addresses T5, VEGFR2 (Homo sapiens, UniProt P35968).
T5 construct: purchased Cell Signaling/ProQinase
The experiment in a line: VEGFR2 kinase inhibition (residual ATP luminescence). Format: biochemical. The settings on record: 1.5 uM ATP, 60 min 37° C. How it is done: as §1, §2

Sequence of Abl (P00519 whole entry, species assumed): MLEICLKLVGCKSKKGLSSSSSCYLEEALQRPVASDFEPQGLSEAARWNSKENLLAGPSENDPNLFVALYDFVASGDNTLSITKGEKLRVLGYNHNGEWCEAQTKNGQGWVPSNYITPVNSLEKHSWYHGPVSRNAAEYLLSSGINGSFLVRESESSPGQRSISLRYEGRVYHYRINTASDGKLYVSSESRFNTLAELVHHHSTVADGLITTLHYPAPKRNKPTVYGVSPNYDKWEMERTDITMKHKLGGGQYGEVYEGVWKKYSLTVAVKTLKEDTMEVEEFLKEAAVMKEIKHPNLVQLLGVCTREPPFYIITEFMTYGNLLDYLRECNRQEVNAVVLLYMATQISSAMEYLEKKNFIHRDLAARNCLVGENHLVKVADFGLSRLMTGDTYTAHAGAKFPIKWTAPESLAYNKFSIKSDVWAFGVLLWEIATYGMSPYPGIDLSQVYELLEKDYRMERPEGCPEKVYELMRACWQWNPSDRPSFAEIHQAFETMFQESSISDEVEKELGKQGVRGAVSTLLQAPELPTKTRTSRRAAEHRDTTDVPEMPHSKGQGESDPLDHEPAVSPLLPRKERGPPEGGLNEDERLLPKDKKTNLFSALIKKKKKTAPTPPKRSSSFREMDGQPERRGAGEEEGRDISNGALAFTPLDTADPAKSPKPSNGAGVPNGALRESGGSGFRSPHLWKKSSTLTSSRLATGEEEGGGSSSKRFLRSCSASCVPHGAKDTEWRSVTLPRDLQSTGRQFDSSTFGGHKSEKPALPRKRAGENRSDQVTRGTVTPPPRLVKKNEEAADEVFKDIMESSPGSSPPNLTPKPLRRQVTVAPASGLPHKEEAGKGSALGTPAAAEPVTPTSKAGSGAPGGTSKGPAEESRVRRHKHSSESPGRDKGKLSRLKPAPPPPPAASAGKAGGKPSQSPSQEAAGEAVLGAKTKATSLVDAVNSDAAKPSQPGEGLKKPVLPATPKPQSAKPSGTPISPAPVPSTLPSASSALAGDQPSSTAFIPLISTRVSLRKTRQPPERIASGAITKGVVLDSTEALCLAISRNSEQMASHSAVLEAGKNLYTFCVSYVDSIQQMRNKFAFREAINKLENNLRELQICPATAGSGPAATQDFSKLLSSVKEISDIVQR
T5 sequence (P35968 20-1356, species assumed): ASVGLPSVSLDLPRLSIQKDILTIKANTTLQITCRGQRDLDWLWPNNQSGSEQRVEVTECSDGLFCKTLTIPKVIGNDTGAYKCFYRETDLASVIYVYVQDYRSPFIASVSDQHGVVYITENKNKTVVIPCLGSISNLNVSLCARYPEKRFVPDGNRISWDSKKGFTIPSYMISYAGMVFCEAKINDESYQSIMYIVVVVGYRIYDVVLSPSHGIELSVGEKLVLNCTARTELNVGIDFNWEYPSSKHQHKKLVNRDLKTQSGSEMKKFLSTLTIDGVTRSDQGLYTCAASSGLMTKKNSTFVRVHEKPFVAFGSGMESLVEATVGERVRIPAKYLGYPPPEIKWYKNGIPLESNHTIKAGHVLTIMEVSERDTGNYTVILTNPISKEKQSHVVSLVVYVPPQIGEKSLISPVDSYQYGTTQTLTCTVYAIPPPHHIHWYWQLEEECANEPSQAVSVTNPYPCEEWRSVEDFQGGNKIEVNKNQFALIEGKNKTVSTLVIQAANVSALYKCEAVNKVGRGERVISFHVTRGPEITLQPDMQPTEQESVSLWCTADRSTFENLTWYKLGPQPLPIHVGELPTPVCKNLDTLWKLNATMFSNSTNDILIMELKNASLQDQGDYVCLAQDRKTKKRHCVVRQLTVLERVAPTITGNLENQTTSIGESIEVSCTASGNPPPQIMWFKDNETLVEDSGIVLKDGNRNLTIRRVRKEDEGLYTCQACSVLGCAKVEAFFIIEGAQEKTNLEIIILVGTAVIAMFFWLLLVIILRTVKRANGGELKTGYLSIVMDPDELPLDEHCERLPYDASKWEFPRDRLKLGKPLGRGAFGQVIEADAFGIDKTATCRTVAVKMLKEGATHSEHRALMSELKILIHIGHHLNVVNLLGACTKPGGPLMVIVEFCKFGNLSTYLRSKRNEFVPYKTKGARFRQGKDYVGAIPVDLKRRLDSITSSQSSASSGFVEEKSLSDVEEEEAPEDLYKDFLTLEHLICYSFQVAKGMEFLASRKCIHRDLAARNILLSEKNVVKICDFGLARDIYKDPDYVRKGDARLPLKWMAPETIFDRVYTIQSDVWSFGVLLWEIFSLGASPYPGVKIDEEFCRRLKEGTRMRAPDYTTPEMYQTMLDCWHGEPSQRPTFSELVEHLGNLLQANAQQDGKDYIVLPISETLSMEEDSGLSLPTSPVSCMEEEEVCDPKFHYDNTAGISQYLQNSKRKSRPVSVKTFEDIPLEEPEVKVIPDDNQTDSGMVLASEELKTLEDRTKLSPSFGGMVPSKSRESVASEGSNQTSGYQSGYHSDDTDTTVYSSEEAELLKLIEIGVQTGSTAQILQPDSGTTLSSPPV

Compound `O=C(Nc1ccc(Cl)c(C(=O)Nc2cnc(Nc3ccc(CCCN4CCCC4)cc3)nc2)c1)c1cccc(C(F)(F)F)c1` [drawing 233] showed an IC50 in assay [1] of 124 nM. Take `O=C(Nc1ccc(Cl)c(C(=O)Nc2cnc(Nc3ccc(OCCN4CCCC4)cc3)nc2)c1)c1cccc(C(F)(F)F)c1` [drawing 230]: the IC50 turned out to be 98 nM in assay [1], 1.8 nM in assay [2], 0.46 nM in assay [3] and 2.2 nM in assay [4]. On to `Cc1ccc(NC(=O)c2cccc(C(F)(F)F)c2)cc1C(=O)Nc1cnc(Nc2cccc(OCCN3CCCC3)c2)nc1` [drawing 226], for which the IC50 in assay [3] amounted to 0.93 nM; in assay [4], 3.8 nM. For the compound `O=C(Nc1ccc(Cl)c(C(=O)Nc2cnc(Nc3ccc(CCCN4CCCC4)cc3)nc2)c1)c1cccc(C(F)(F)F)c1` [drawing 231], in assay [2], inhibition was half-maximal at 3.8 nM (IC50). `Cc1ccc(NC(=O)c2cccc(C(F)(F)F)c2)cc1C(=O)Nc1cnc(Nc2ccc(OCCN3CCCC3)cc2)nc1` [drawing 240]: a half-maximal response in assay [5] (EC50) required 199 nM. This counts as sub-micromolar. The compound `O=C(Nc1cnc(Nc2cccc(OCCN3CCCC3)c2)nc1)c1cc(NC(=O)C(F)(F)F)ccc1Cl` [drawing 227] had an IC50 in assay [2] of 154 nM. Consider `O=C(Nc1ccc(Cl)c(C(=O)Nc2cnc(Nc3cccc(OCCN4CCCC4)c3)nc2)c1)c1cccc(C(F)(F)F)c1` [drawing 225], for which the IC50 in assay [2] was determined as 1.1 nM; in assay [3], 0.52 nM; in assay [4] it was 1.7 nM. For `O=C(Nc1ccc(Cl)c(C(=O)Nc2cnc(Nc3cccc(OCCN4CCCC4)c3)nc2)c1)c1cccc(C(F)(F)F)c1` [drawing 238], the EC50 in assay [5] is 69 nM. As to `O=C(Nc1ccc(Cl)c(C(=O)Nc2cnc(Nc3ccc(S(=O)(=O)C4CCNCC4)cc3)nc2)c1)c1cccc(C(F)(F)F)c1` [drawing 228], the IC50 in assay [2] worked out at 0.2 nM; in assay [3], 0.9 nM; in assay [4], 4.5 nM. As to `O=C(Nc1ccc(Cl)c(C(=O)Nc2cnc(Nc3ccc(O)cc3)nc2)c1)c1cccc(C(F)(F)F)c1`, the IC50 stood at 19 nM in assay [6] and 15 nM in assay [7]. For `O=C(Nc1ccc(Cl)c(C(=O)Nc2cnc(Nc3ccc(S(=O)(=O)C4CCNCC4)cc3)nc2)c1)c1cccc(Cl)c1` the same measures were 2.5 nM and 11.6 nM. For `Cc1ccc(NC(=O)c2cccc(C(F)(F)F)c2)cc1C(=O)Nc1cnc(Nc2cccc(OCCN3CCCC3)c2)nc1` [drawing 163] the same measures were 3.9 nM and 13.8 nM. As for `O=C(Nc1ccc(Cl)c(C(=O)Nc2cnc(Nc3ccc(OCCN4CCCC4)cc3)nc2)c1)c1cccc(F)c1`, the results for the IC50 in assay [6] and in assay [7] were 3 nM and 40.7 nM, respectively.

With `Cc1ccc(NC(=O)Nc2ccccc2)cc1C(=O)Nc1cnc(Nc2ccc(OCCN3CCCC3)cc2)nc1`, the figures for the IC50 in assay [6] and in assay [7] were 4.5 nM and 168 nM, respectively.

In assay [5], `O=C(Nc1ccc(Cl)c(C(=O)Nc2cnc(Nc3cccnc3)nc2)c1)c1cccc(C(F)(F)F)c1` [drawing 243] showed an EC50 of 68 nM. In other words, the double-digit nanomolar range. Same read-out and setting: the same measure for `O=C(Nc1ccc(Cl)c(C(=O)Nc2cnc(Nc3ccc(S(=O)(=O)C4CCNCC4)cc3)nc2)c1)c1cccc(C(F)(F)F)c1` [drawing 239]: 1150 nM. On to `Cc1ccc(NC(=O)Nc2cccc(C(F)(F)F)c2)cc1C(=O)Nc1cnc(Nc2cccnc2)nc1`, for which the IC50 worked out at 7.9 nM in assay [6] and 27.8 nM in assay [7]. The like results for `Cc1ccc(Nc2nccc3ccccc23)cc1C(=O)Nc1cnc(Nc2cccc(OCCN3CCCC3)c2)nc1` [drawing 186] were, in that order, 23.3 nM and 3350 nM. The like results for `O=C(NCCN1CCCC1)c1ccc(Nc2ncc(NC(=O)c3cc(NC(=O)c4cccc(C(F)(F)F)c4)ccc3Cl)cn2)cc1` were, in that order, 1.4 nM and 2.2 nM. `Cc1ccc(NC(=O)c2cccc(C(F)(F)F)c2)cc1C(=O)Nc1cnc(Nc2ccc(OCCN3CCCC3)cc2)nc1` [drawing 170]: the IC50 turned out to be 3.3 nM in assay [6] and 3.2 nM in assay [7]. On to `O=C(Nc1ccc(Cl)c(C(=O)Nc2cnc(Nc3ccc(OCCN4CCCC4)cc3)nc2)c1)c1ccc(C(F)(F)F)cc1`, for which the IC50 in assay [6] was determined as 3.3 nM; in assay [7] it was 12 nM. Regarding `O=C(Nc1ccc(Cl)c(C(=O)Nc2cnc(Nc3cccc(OCCN4CCCC4)c3)nc2)c1)c1cccc(C(F)(F)F)c1` [drawing 162], the IC50 in assay [6] was determined as 2.1 nM; in assay [7] it was 2.7 nM. Compound `O=C(Nc1ccc(Cl)c(C(=O)Nc2cnc(Nc3ccc(OCCN4CCCC4)cc3)nc2)c1)c1cccc(C(F)(F)F)c1` [drawing 241] yielded an EC50 in assay [5] of 30 nM. In the case of `O=C(Nc1ccc(Cl)c(CNc2cnc(Nc3cccnc3)nc2)c1)c1cccc(C(F)(F)F)c1`, the figures for the IC50 in assay [6] and in assay [7] were 10.2 nM and 2.1 nM, respectively.

In assay [2], `Cc1ccc(NC(=O)C(F)(F)F)cc1C(=O)Nc1cnc(Nc2cccc(OCCN3CCCC3)c2)nc1` [drawing 232] displayed an IC50 of 126 nM.

Turning to `COc1ccc(Nc2ncc(NC(=O)c3cc(NC(=O)c4cccc(C(F)(F)F)c4)ccc3Cl)cn2)cc1`, the values for the IC50 in assay [6] and in assay [7] were 12 nM and 23 nM, respectively. With `O=C(Nc1ccc(Cl)c(C(=O)Nc2cnc(Nc3ccccc3)nc2)c1)c1cccc(C(F)(F)F)c1` [drawing 234], the figures for the IC50 in assay [3] and in assay [4] were 4.2 nM and 32.2 nM, respectively. The compound `O=C(Nc1ccc(Cl)c(C(=O)Nc2cnc(Nc3ccc(CCCN4CCCC4)cc3)nc2)c1)c1cccc(C(F)(F)F)c1` [drawing 242] returned an EC50 in assay [5] of 41 nM.

For the compound `O=C(Nc1ccc(Cl)c(C(=O)Nc2cnc(Nc3cccnc3)nc2)c1)c1cccc(C(F)(F)F)c1` [drawing 211], the results for the IC50 in assay [6] and in assay [7] were 4.7 nM and 5.4 nM, respectively.

Regarding `Cc1ccc(Nc2nccc3ccccc23)cc1C(=O)Nc1cnc(Nc2cccc(OCCN3CCCC3)c2)nc1` [drawing 236], the IC50 was 22.2 nM in assay [3] and 309 nM in assay [4]. Consider `Cc1ccc(NC(=O)c2cccc(C(F)(F)F)c2)cc1C(=O)Nc1cnc(Nc2ccc(OCCN3CCCC3)cc2)nc1` [drawing 229], for which the half-inhibitory concentration (IC50) stood at 5.5 nM in assay [2], 1.3 nM in assay [3] and 5.1 nM in assay [4]. With `O=C(Nc1cccc(C(F)(F)F)c1)Nc1ccc(Cl)c(C(=O)Nc2cnc(Nc3ccc(OCCN4CCCC4)cc3)nc2)c1` [drawing 237], the IC50 in assay [1] amounted to 558 nM; in assay [3], 2.5 nM; in assay [4], 22.4 nM.

On to `O=C(Nc1ccc(Cl)c(C(=O)Nc2cnc(Nc3ccc(OCCN4CCCC4)cc3)nc2)c1)c1cccc(C(F)(F)F)c1` [drawing 171], for which the IC50 in assay [6] amounted to 1.2 nM; in assay [7], 0.8 nM.
